System: systemic lupus erythematosus (SLE) in MRL/MpJFASlpr mice
Test: MRL/MpJFASlpr mouse model of systemic lupus erythematosus
Format: in vivo
Conditions: 15 mg/kg IP QD
Protocol: A study designed to determine the effects of candidate anti-inflammatory agent Formula (II) in oral (PO), daily (QD) administration in the treatment of systemic lupus erythematosus (SLE) in MRL/MpJFASlpr mice. Formula (II) was preformulated in vehicle (0.4% HPMC, 0.1% Tween 80, with simethicone for antifoaming). The female MRL/MpJFASlpr mice were dosed with vehicle or Formula (II) (1, 5, or 25 mg/kg) daily (QD) by the oral (PO) route dosing, or they were dosed QD by the intraperitoneal (IP) route with the reference compound cyclophosphamide (15 mg/kg). Prior to dosing, the candidate anti-inflammatory agent was reconstituted either by vortexing or stirring. […]
Female MRL/MpJFASlpr mice (n=50) that were 8-9 weeks old and weighed approximately 28-41 grams (mean 34 g) at enrollment (mouse age approx. 12 weeks) were obtained from The Jackson Laboratory, Bar Harbor, Me. (stock number 000485). These mice were housed 3-5/cage in shoe-box polycarbonate cages with wire tops, wood chip bedding, and suspended food and water bottles. No concurrent medications were given.
When they were 12 weeks old (study day 0), the female MRL/MpJFASlpr mice (n=10/group) were randomized by body weight into 5 groups as shown above. Treatment was initiated after randomization and continued for […] (mouse age 12 weeks to 23 weeks).
Starting on study week one, and then every week thereafter urine from each animal was tested for proteinuria using the Clinitech Multistick test strip (Bayer). The animals were also observed daily for significant clinical signs, moribundity and mortality. […] Efficacy evaluation was based on animal body weights, proteinuria analysis, lymphadenopathy scores, skin lesion scores, organ weights, anti-dsDNA titers, clinical chemistry parameters, and histopathologic evaluation of the kidneys.
Any animals showing signs of morbundity were terminated immediately. At necropsy (3 h post-dose, mouse age 23 weeks), all remaining animals were anesthetized with Isoflurane and bled via cardiac puncture for serum and plasma (Li Heparin). The animals were bled to exsanguinate then euthanized by cervical dislocation. Spleens, kidneys (paired), and lymph nodes were collected and weighed. Kidneys were collected into 10% neutral buffered formalin (NBF). Spleens were placed in RPMI 1% FBS media for splenocyte isolation. Serum samples for potential clinical chemistry analysis were stored frozen at −80° C. until shipment to Antech Diagnostics. Plasma samples were stored frozen at −80° C. for mouse antidsDNA IgG analysis by ELISA.
Blood samples were drawn via cardiac puncture from Isoflurane anesthetized animals into serum separator microtainer tubes for clinical chemistries. Samples were shipped to Antech Diagnostics for analysis.

## O=P1(N(CCCl)CCCl)NCCCO1 (centres unmarked) [Cyclophosphamide, cyclophosphamide, reference compound]
  Percent Survival: 100%
  anti-dsDNA IgG levels in plasma, reduction vs Vehicle Disease Controls: 76%
All Animals, mean (SE)
  Histopathology Glomerulus Diameter: *67.73 (2.10)
  Histopathology Interstitial Inflammation: *0.95 (0.19)
  Histopathology Summed Score: *2.18 (0.57)
  Kidney (paired) Weight (g): *0.432 (0.01) g
Term Animals, mean (SE)
  Change in Body Weight (g) wk 1-12: 3.30 (0.32) g
  Histopathology Glomerulus Diameter: *67.73 (2.10)
  Histopathology Interstitial Inflammation: *0.95 (0.19)
  Histopathology Summed Score: *2.18 (0.57)
  Kidney (paired) Weight (g): *0.432 (0.01) g
All animals
  absolute cumulative lymph node weights, reduction vs Vehicle Disease Controls: 87%
  absolute kidney weights, reduction vs Vehicle Disease Controls: 23%
  absolute mesenteric lymph node weights, reduction vs Vehicle Disease Controls: 76%
  absolute spleen weights, reduction vs Vehicle Disease Controls: 77%
  glomerulus crescent score, reduction: 100%
  glomerulus diameter, reduction: 89%
  glomerulus score, reduction: 88%
  interstitial inflammation, reduction: 74%
  percent of glomeruli with crescents, reduction: 100%
  protein cast score, reduction: 90%
  summed histopathology scores, reduction: 86%
  vasculitis, reduction: 82%
All animals or term animals only
  serum clinical chemistries vs Vehicle Disease Controls: significantly increased ALB, A/G, alkaline phosphatase (ALK), GLU, and Na/K and significantly reduced globulin (GLOB), BUN, BUN/creatinine, K, and AMY
All animals, mouse age 14-23 weeks
  urine protein scores vs Vehicle Disease Controls: significantly reduced
Mouse age 15-23 weeks, all or term animals
  lymphadenopathy scores vs Vehicle Disease Controls: significantly reduced
Mouse age 20-23 weeks, all or term animals
  skin lesion scores vs Vehicle Disease Controls: significantly reduced
Term animals
  absolute cumulative lymph node weights, reduction vs Vehicle Disease Controls: 90%
  absolute kidney weights, reduction vs Vehicle Disease Controls: 32%
  absolute mesenteric lymph node weights, reduction vs Vehicle Disease Controls: 82%
  absolute spleen weights, reduction vs Vehicle Disease Controls: 82%
Term animals only
  glomerulus crescent score, reduction: 100%
  glomerulus diameter, reduction: 85%
  glomerulus score, reduction: 86%
  interstitial inflammation, reduction: 70%
  percent of glomeruli with crescents, reduction: 100%
  protein cast score, reduction: 86%
  summed histopathology scores, reduction: 82%
  vasculitis, reduction: 80%
Term animals only, mouse age 14-16 and 19-23 weeks
  urine protein scores vs Vehicle Disease Controls: significantly reduced
Week 1 to week 5
  body weight gain: 1.03 g
